Data: patent US10206398B2, “Five-membered C-N-attached aryl sulphide and aryl sulphoxide derivatives as pesticides” (BAYER CROPSCIENCE AKTIENGESELLSCHAFT, priority 2014, dated 2019)
Read-outs that look alike come from different tables or passages of the source.

What was measured:
[1] = log P determination by HPLC on reversed-phase columns (C 18), analogous to OECD Guideline 117; type: physicochemical; conditions: for logP[a]: method [a]; for logP[b]: method [b]; for chromatographic logP: reversed-phase HPLC column (C 18)
Summary of the method: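 Reversed-phase C18 HPLC per OECD 117, two conditions: [a] pH 2.7, 0.1% formic acid water/acetonitrile, log P(HCOOH); [b] pH 7.8, 0.001 M ammonium hydrogencarbonate/acetonitrile, log P(neutral). Both use a 10–95% acetonitrile gradient; values are interpolated from retention times against C3–C16 unbranched alkan-2-ones.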

Boophilus microplus = Boophilus microplus - injection test; type: in vivo; conditions: 20 μg/animal, injection into engorged adult female cattle ticks, assessed after 7 days
Description: 1. Boophilus microplus—Injection Test
Solvent: dimethyl sulphoxide
To produce a suitable preparation of active compound, 10 mg of active compound are mixed with 0.5 ml of solvent and the concentrate is diluted with solvent to the desired concentration.
1 μl of the active compound solution is injected into the abdomen of 5 engorged adult female cattle ticks (Boophilus microplus). The animals are transferred into dishes and kept in a climate-controlled room.
Efficacy is assessed after 7 days by laying of fertile eggs. Eggs which are not visibly fertile are stored in a climate-controlled cabinet until the larvae hatch after about 42 days. An efficacy of 100% means that none of the ticks has laid any fertile eggs; 0% means that all the eggs are fertile.

Meloidogyne incognita = Meloidogyne incognita - test; type: in vivo; conditions: 20 ppm, lettuce, after 14 days
Description: 2. Meloidogyne incognita—Test Solvent: 125.0 parts by weight of acetone To produce a suitable preparation of active compound, 1 part by weight of active compound is mixed with the stated amount of solvent and the concentrate is diluted with water to the desired concentration. Vessels are filled with sand, active compound solution, an egg/larvae suspension of the southern root-knot nematode (Meloidogyne incognita) and lettuce seeds. The lettuce seeds germinate and the plants develop. The galls develop on the roots. After 14 days, the nematicidal efficacy in % is determined by the formation of galls. 100% means that no galls were found; 0% means that the number of galls on the treated plants corresponds to the untreated control.

Tetranychus urticae = Tetranychus urticae - spray test, OP-resistant (bean leaf discs, 6 days); type: in vivo; conditions: after 6 days; for pest or weed control at 500 g/ha: Tetranychus urticae, foliar, 144 h, read-out: efficacy (spider mites killed)
Summary of the method: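 Bean leaf discs carrying all stages of OP-resistant Tetranychus urticae were sprayed with compound formulated in acetone/DMF and diluted in water with 1000 ppm emulsifier. Mortality was scored after 6 days as % efficacy, where 100% means all mites were killed.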

Phaedon cochleariae = Phaedon cochleariae - spray test; type: in vivo; conditions: 500 g/ha, Chinese cabbage leaf discs, after 7 days
Description: 4. Phaedon cochleariae—Spray Test
Solvent: 78.0 parts by weight of acetone
• 1.5 parts by weight of dimethylformamide Emulsifier: alkylaryl polyglycol ether
To produce a suitable preparation of active compound, 1 part by weight of active compound is dissolved using the stated parts by weight of solvent and made up with water containing an emulsifier concentration of 1000 ppm until the desired concentration is attained. To produce further test concentrations, the preparation is diluted with emulsifier-containing water.
After 7 days, the efficacy in % is determined. 100% means that all the beetle larvae have been killed; 0% means that no beetle larvae have been killed.

[2] = pH 2.7, HPLC, acidic range, pH 2.7, 0.1% aqueous formic acid and acetonitrile, read-out: log P(HCOOH)
[3] = pH 2.7, method [a], read-out: logP[a]
[4] = pH 7.8, HPLC, neutral range, pH 7.8, 0.001 molar aqueous ammonium hydrogencarbonate and acetonitrile, read-out: log P(neutral)
[5] = pH 7.8, method [b], read-out: logP[b]

| Compound | logP[a] [1] | logP[b] [1] | efficacy (laying of fertile eggs) (Boophilus microplus) [%] | nematicidal efficacy (formation of galls) (Meloidogyne incognita) [%] | efficacy (spider mites killed) (Tetranychus urticae; 100 g/ha) [%] | efficacy (beetle larvae killed) (Phaedon cochleariae) [%] | efficacy (spider mites killed) (Tetranychus urticae; 500 g/ha) [%] | chromatographic logP [1, 2] | chromatographic logP [1, 3] | chromatographic logP [1, 4] | chromatographic logP [1, 5] | pest or weed control at 500 g/ha (Tetranychus urticae; 500 g/ha) [%] |
| --- | --- | --- | --- | --- | --- | --- | --- | --- | --- | --- | --- | --- |
| Cc1cc(C)c([S+]([O-])CC(F)(F)F)cc1N1C(=O)CN(C(=O)Nc2ccc(F)cc2)C1=O (racemic) [compound 99] | 3.01 | 2.92 | 100 | 90 | 90 | – | – | – | – | – | – | – |
| Cc1cc(Cl)c(N2C(=O)CN(C(=O)NCC(F)(F)F)C2=O)cc1SCC(F)(F)F [compound 53] | 3.51 | 3.40 | – | – | – | 83 | 100 | – | – | – | – | – |
| Cc1cc(F)c(N2C(=O)CN(C(=O)NCc3ccccc3)C2=O)cc1[S+]([O-])CC(F)(F)F (stereo not drawn) [compound 21] | 2.77 | 2.71 | 100 | 90 | – | – | 100 | – | – | – | – | – |
| Cc1cc(F)c(N2C(=O)CN(C(=O)NCC(F)(F)F)C2=O)cc1SCC(F)(F)F [Ex. No. 30, 3-[2-Fluoro-4-methyl-5-(2,2,2-trifluoroethylsulphanyl)phenyl]-2,4-dioxo-N-(2,2,2-trifluoroethyl)imidazolidine-1-carboxamide] | – | – | – | – | – | 83 | – | 3.28 | 3.28 | 3.21 | 3.21 | 90 |
| Cc1cc(C)c([S+]([O-])CC(F)(F)F)cc1N1C(=O)CN(C(=O)NC(C)C)C1=O (stereo not drawn) [compound 23] | 2.52 | 2.45 | 100 | 100 | – | – | – | – | – | – | – | – |
| CCC(C)NC(=O)N1CC(=O)N(c2cc(SCC(F)(F)F)c(C)cc2F)C1=O (stereo not drawn) [compound 44] | 3.64 | 3.58 | – | – | – | 100 | 100 | – | – | – | – | – |
| CCC(C)NC(=O)N1CC(=O)N(c2cc([S+]([O-])CC(F)(F)F)c(C)cc2F)C1=O (stereo not drawn) [compound 47] | 2.70 | 2.65 | 100 | 100 | – | – | 100 | – | – | – | – | – |
| Cc1cc(F)c(N2C(=O)CN(C(=O)Nc3ccc(F)cc3)C2=O)cc1SCC(F)(F)F [compound 39] | 3.85 | 3.75 | – | – | – | 100 | 100 | – | – | – | – | – |
| Cc1cc(F)c(N2C(=O)C(C)N(C(=O)NCC(F)(F)F)C2=O)cc1[S+]([O-])CC(F)(F)F (mixture of isomers) [compound 88] | 2.75 | 2.71 | 100 | – | – | – | 100 | – | – | – | – | – |
| Cc1cc(F)c(N2C(=O)CN(C(=O)NCC3CCCO3)C2=O)cc1[S+]([O-])CC(F)(F)F (mixture of isomers) [compound 91] | 2.19 | 2.13 | 100 | – | – | – | 100 | – | – | – | – | – |
| Cc1cc(Cl)c(N2C(=O)CN(C(=O)NC3CC3)C2=O)cc1[S+]([O-])CC(F)(F)F (stereo not drawn) [compound 62] | 2.38 | 2.29 | 100 | – | – | – | 100 | – | – | – | – | – |
| Cc1cc(F)c(N2C(=O)CN(C(=O)NC(C)C)C2=O)cc1[S+]([O-])CC(F)(F)F (stereo not drawn) [compound 10] | 2.40 | 2.38 | 100 | 100 | – | – | 100 | – | – | – | – | – |
| CCNC(=O)N1C(=O)N(c2cc([S+]([O-])CC(F)(F)F)c(C)cc2F)C(=O)C1C (stereo not drawn) [Ex. No. 27, N-Ethyl-3-[2-fluoro-4-methyl-5-(2,2,2-trifluoroethylsulphinyl)phenyl]-5-methyl-2,4-dioxoimidazolidine-1-carboxamide] | – | – | 100 | – | – | – | – | 2.42 | 2.42 | 2.39 | 2.39 | 100 |
| Cc1cc(F)c(N2C(=O)C(C)N(C(=O)NC(C)C)C2=O)cc1[S+]([O-])CC(F)(F)F (stereo not drawn) [compound 29] | 2.77 | 2.73 | 100 | – | – | – | 100 | – | – | – | – | – |
| Cc1cc(F)c(N2C(=O)CN(C(=O)NC(C)(C)C)C2=O)cc1[S+]([O-])CC(F)(F)F (racemic) [compound 68] | 2.84 | 2.75 | 100 | 90 | – | – | 100 | – | – | – | – | – |
| Cc1cc(C)c([S+]([O-])CC(F)(F)F)cc1N1C(=O)CN(C(=O)Nc2ccccn2)C1=O (racemic) [compound 118] | 2.46 | 2.50 | – | – | – | 100 | – | – | – | – | – | – |
| Cc1cc(F)c(N2C(=O)CN(C(=O)NC3CC3)C2=O)cc1SCC(F)(F)F [Ex. No. 1, N-Cyclopropyl-3-[2-fluoro-4-methyl-5-(2,2,2-trifluoroethylsulphanyl)phenyl]-2,4-dioxoimidazolidine-1-carboxamide] | – | – | 100 | 90 | – | – | – | 3.07 | 3.07 | 2.98 | 2.98 | 100 |
| CCNC(=O)N1CC(=O)N(c2cc([S+]([O-])CC(F)(F)F)c(C)cc2F)C1=O (stereo not drawn) [compound 9] | 2.05 | 2.05 | 100 | 100 | – | – | 100 | – | – | – | – | – |
| Cc1cc(F)c(N2C(=O)CN(C(=O)Nc3cccc(F)c3)C2=O)cc1SCC(F)(F)F [compound 42] | 3.90 | 3.94 | 100 | 90 | – | – | 100 | – | – | – | – | – |
| Cc1cc(F)c(N2C(=O)CN(C(=O)Nc3ccc(F)cc3)C2=O)cc1[S+]([O-])CC(F)(F)F (stereo not drawn) [compound 41] | 2.92 | 2.86 | 100 | – | – | – | 100 | – | – | – | – | – |
| Cc1cc(Cl)c(N2C(=O)CN(C(=O)NCC(F)(F)F)C2=O)cc1[S+]([O-])CC(F)(F)F (stereo not drawn) [compound 63] | 2.66 | 2.58 | 100 | – | – | – | 100 | – | – | – | – | – |
| Cc1cc(F)c(N2C(=O)CN(C(=O)NCC(F)(F)F)C2=O)cc1[S+]([O-])CC(F)(F)F (stereo not drawn) [Ex. No. 36, 3-[2-Fluoro-4-methyl-5-(2,2,2-trifluoroethylsulphinyl)phenyl]-2,4-dioxo-N-(2,2,2-trifluoroethyl)imidazolidine-1-carboxamide] | – | – | 100 | 90 | – | – | – | 2.46 | 2.46 | 2.42 | 2.41 | 100 |
| Cc1cc(F)c(N2C(=O)CN(C(=O)NCC(C)C)C2=O)cc1[S+]([O-])CC(F)(F)F (stereo not drawn) [Ex. No. 15, 3-[2-Fluoro-4-methyl-5-(2,2,2-trifluoroethylsulphinyl)phenyl]-N-isobutyl-2,4-dioxoimidazolidine-1-carboxamide] | – | – | 100 | – | – | – | – | 2.72 | 2.72 | 2.66 | 2.66 | 100 |
| CCNC(=O)N1CC(=O)N(c2cc(SCC(F)(F)F)c(C)cc2F)C1=O [compound 6] | 2.98 | 2.93 | 100 | 90 | – | – | 100 | – | – | – | – | – |
| Cc1cc(F)c(N2C(=O)CN(C(=O)NC(C)C)C2=O)cc1SCC(F)(F)F [Ex. No. 7] | 3.34 | 3.29 | 100 | 90 | – | – | 100 | – | – | – | – | – |
